Like-named read-outs stand apart in the source and are kept apart here. Starred links: 1 amine or outer side, 2 acyl side, 3 side chain; linkers in the order of their positions; H or OH if unused. Positions of bridges follow the written chain, without caps; N, C: chain ends. Non-standard residues stand in square brackets, D forms with d. Residues, ends and D or L forms follow the SMILES beside them. ξ: configuration not given here. X2 = CCOc1ccc(-c2[nH]c3ccccc3c2C[C@H](N[*:1])C(=O)[*:2])cc1; Phe(3,4,5-F3) = N[C@@H](Cc1cc(F)c(F)c(F)c1)C(=O)O; Phe(3,4-(OMe)2) = COc1ccc(C[C@H](N)C(=O)O)cc1OC; Pro(4R-Bn) = O=C(O)[C@@H]1C[C@@H](Cc2ccccc2)CN1; Pro(4R-NH2) = N[C@H]1CN[C@H](C(=O)O)C1; Hyp = O=C(O)[C@@H]1C[C@@H](O)CN1; NMeF = CN[C@@H](Cc1ccccc1)C(=O)O; X4 = O=C([C@H]1COCCN1[*:1])[*:2]; dHyp = O=C(O)[C@H]1C[C@H](O)CN1; Cha = N[C@@H](CC1CCCCC1)C(=O)O; NMeNle = CCCC[C@H](NC)C(=O)O; ξR = N=C(N)NCCCC(N)C(=O)O; NMeA = CN[C@@H](C)C(=O)O; Orn = NCCC[C@H](N)C(=O)O; Dab = NCC[C@H](N)C(=O)O; Dap = NC[C@H](N)C(=O)O; ξC = NC(CS)C(=O)O; Sar = CNCC(=O)O
Experiments:
[1] = target: T1, Human PD-L1/PD-1 (Homo sapiens, UniProt Q9NZQ7); test: HTRF PD-1-Ig/PD-L1-His binding assay (human PD-L1); conditions: cluster symbol; read-out: HTRF IC50 cluster
T1 construct: made in house; host or cells: HEK293T
T1 sequence (Q9NZQ7 with tags, fused parts or gaps): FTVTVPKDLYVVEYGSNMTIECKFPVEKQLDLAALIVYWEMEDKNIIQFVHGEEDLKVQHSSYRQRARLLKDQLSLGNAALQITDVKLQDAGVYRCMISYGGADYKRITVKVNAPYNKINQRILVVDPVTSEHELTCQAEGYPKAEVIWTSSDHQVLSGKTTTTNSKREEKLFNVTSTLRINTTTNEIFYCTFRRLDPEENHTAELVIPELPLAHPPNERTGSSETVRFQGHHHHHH
Method in brief: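 Soluble PD-1-Ig binding to PD-L1-His measured by HTRF in dPBS with 0.1% BSA and 0.05% Tween-20. Detection used europium cryptate anti-Ig antibody (1 nM final) and APC anti-His antibody (20 nM final) added on top of the binding reaction.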

[2] = target: T2, LK35.2-hPD-L1 cells / PE-labeled PD-1-Ig (Homo sapiens, UniProt Q9NZQ7); test: LK35.2-hPD-L1 cell binding high-content screening assay; assay type: cell-based; conditions: cluster symbol, read-out: CBA IC50 cluster
T2 construct: expressed in transfected cells; host or cells: LK35.2 mouse B cell line
T2 sequence (Q9NZQ7 19-290): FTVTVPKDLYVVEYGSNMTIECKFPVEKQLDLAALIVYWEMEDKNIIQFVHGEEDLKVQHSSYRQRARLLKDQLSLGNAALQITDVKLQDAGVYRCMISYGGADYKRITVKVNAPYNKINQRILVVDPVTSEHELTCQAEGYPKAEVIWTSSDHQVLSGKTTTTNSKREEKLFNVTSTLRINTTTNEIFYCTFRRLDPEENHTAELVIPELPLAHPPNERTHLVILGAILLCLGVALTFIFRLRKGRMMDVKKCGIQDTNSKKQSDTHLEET
Method in brief: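 Binding of PE-conjugated human PD-1-Ig (1 nM final) to human PD-L1 stably expressed on a mouse B-cell line (LK35.2) was measured by high-content imaging after washes. Compound and labeled PD-1-Ig were co-incubated 1 h at 37 °C with cells in RPMI/10% FCS.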

[3] = cell line of CBA not given (LK35.2-hPD-L1 or 293T-hPD-L1)
[4] = cell binding assay, cell line not given

| Compound | IC50 [1] [nM] | IC50 [2, 3] [nM] | IC50 [2, 4] [nM] |
| --- | --- | --- | --- |
| CCCC[C@H]1C(=O)N(C)[C@@H](CCCC)C(=O)N[C@@H](C)C(=O)N[C@H](C(=O)NCC(N)=O)CSCC(=O)N[C@@H](Cc2ccc(O)cc2)C(=O)N(C)[C@@H](C)C(=O)N[C@@H](CCC(=O)O)C(=O)N2CCC[C@H]2C(=O)N[C@@H](Cc2cnc[nH]2)C(=O)N[C@@H](CCCN)C(=O)N2C[C@H](O)C[C@H]2C(=O)N[C@@H](Cc2c[nH]c3ccccc23)C(=O)N[C@@H](CO)C(=O)N[C@@H](Cc2c[nH]c3ccccc23)C(=O)N1C [Example 1178] ({CH2CO}-Y[NMeA]EPH[Orn][Hyp]WSW[NMeNle][NMeNle]ACG-NH2; thioether N-14) | 0.385 to 6.74 | 4.78 to 72.9 |  |
| CCCC[C@H]1C(=O)N(C)[C@@H](CCCC)C(=O)N[C@@H](CCCNC(=N)N)C(=O)NC(C(=O)NCC(N)=O)CSCC(=O)N[C@@H](Cc2ccc(O)cc2)C(=O)N(C)[C@@H](C)C(=O)N[C@@H](CC(N)=O)C(=O)N2CCC[C@H]2C(=O)N[C@@H](Cc2cnc[nH]2)C(=O)N[C@@H](CO)C(=O)N2CCC[C@H]2C(=O)N[C@@H](Cc2c[nH]c3ccccc23)C(=O)N[C@@H](CO)C(=O)N[C@@H](Cc2c[nH]c3ccccc23)C(=O)N1C (stereo partly shown) [Example 9067] ({CH2CO}-Y[NMeA]NPHSPWSW[NMeNle][NMeNle]R[ξC]G-NH2; thioether N-14) | 0.385 to 6.74 |  | 0.158 to 4.71 |
| CCCC[C@H]1C(=O)N(C)[C@@H](CCCC)C(=O)N[C@@H](CC(C)C)C(=O)N[C@H](C(=O)NCC(N)=O)CSCC(=O)N[C@@H](Cc2ccc(O)cc2)C(=O)N(C)[C@@H](C)C(=O)N[C@@H](CC(N)=O)C(=O)N2CCC[C@H]2C(=O)N[C@@H](Cc2c[nH]cn2)C(=O)N[C@@H](CCC(N)=O)C(=O)N2C[C@H](O)C[C@H]2C(=O)N[C@@H](Cc2c[nH]c3ccccc23)C(=O)N[C@@H](CO)C(=O)N[C@@H](Cc2c[nH]c3ccccc23)C(=O)N1C [Example 5075] ({CH2CO}-Y[NMeA]NPHQ[Hyp]WSW[NMeNle][NMeNle]LCG-NH2; thioether N-14) | 0.385 to 6.74 |  | 0.158 to 4.71 |
| CCCC[C@H]1C(=O)N(C)[C@@H](CCCC)C(=O)N[C@@H](CC2CCCCC2)C(=O)N[C@H](C(=O)NCC(N)=O)CSCC(=O)N[C@@H](Cc2ccc(O)cc2)C(=O)N(C)[C@@H](C)C(=O)N[C@@H](CC(N)=O)C(=O)N2CCC[C@H]2C(=O)N[C@@H](Cc2c[nH]cn2)C(=O)N[C@@H](CCC(N)=O)C(=O)N2C[C@H](O)C[C@H]2C(=O)N[C@@H](Cc2c[nH]c3ccccc23)C(=O)N[C@@H](CO)C(=O)N[C@@H](Cc2c[nH]c3ccccc23)C(=O)N1C [Example 5077] ({CH2CO}-Y[NMeA]NPHQ[Hyp]WSW[NMeNle][NMeNle][Cha]CG-NH2; thioether N-14) | 6.76 to 30.3 |  | 0.158 to 4.71 |
| CCCC[C@H]1C(=O)N(C)[C@@H](CCCC)C(=O)NC(CCCNC(=N)N)C(=O)N[C@H](C(=O)NCC(N)=O)CSCC(=O)N[C@@H](Cc2ccc(O)cc2)C(=O)N(C)[C@@H](C)C(=O)N[C@@H](CC(N)=O)C(=O)N2CCC[C@H]2C(=O)N[C@@H](CN)C(=O)N[C@@H](CC(C)C)C(=O)N2C[C@H](O)C[C@H]2C(=O)N[C@@H](Cc2c[nH]c3ccccc23)C(=O)N[C@@H](CO)C(=O)N[C@@H](Cc2c(-c3ccc(OCC)cc3)[nH]c3ccccc23)C(=O)N1C (stereo partly shown) [Example 7009] ({CH2CO}-Y[NMeA]NP[Dap]L[Hyp]WS[X2][NMeNle][NMeNle][ξR]CG-NH2; thioether N-14) | 0.385 to 6.74 |  | 0.158 to 4.71 |
| CCCC[C@H]1C(=O)N(C)[C@@H](CCCC)C(=O)N[C@@H](CCCN)C(=O)N[C@H](C(=O)NCC(N)=O)CSCC(=O)N[C@@H](Cc2ccc(O)cc2)C(=O)N(C)[C@@H](C)C(=O)N[C@@H](CC(N)=O)C(=O)N2CCC[C@H]2C(=O)N[C@@H](CN)C(=O)N[C@@H](CC(C)C)C(=O)N2C[C@H](Cc3ccccc3)C[C@H]2C(=O)N[C@@H](Cc2c[nH]c3ccccc23)C(=O)N[C@@H](CO)C(=O)N[C@@H](Cc2c[nH]c3ccccc23)C(=O)N1C [Example 13009] ({CH2CO}-Y[NMeA]NP[Dap]L[Pro(4R-Bn)]WSW[NMeNle][NMeNle][Orn]CG-NH2; thioether N-14) | 0.385 to 6.74 |  | 0.158 to 4.71 |
| CCCC[C@H]1C(=O)N(C)[C@@H](CCCC)C(=O)N[C@@H](CCN)C(=O)N[C@H](C(=O)NCC(N)=O)CSCC(=O)N[C@@H](Cc2ccc(O)cc2)C(=O)N(C)[C@@H](C)C(=O)N[C@@H](CC(=O)O)C(=O)N2CCC[C@H]2C(=O)N[C@@H](Cc2cnc[nH]2)C(=O)N[C@@H](CCC(N)=O)C(=O)N2C[C@H](O)C[C@H]2C(=O)N[C@@H](Cc2c[nH]c3ccccc23)C(=O)N[C@@H](CO)C(=O)N[C@@H](Cc2c[nH]c3ccccc23)C(=O)N1C [Example 5045] ({CH2CO}-Y[NMeA]DPHQ[Hyp]WSW[NMeNle][NMeNle][Dab]CG-NH2; thioether N-14) | 0.385 to 6.74 |  | 0.158 to 4.71 |
| CCCC[C@H]1C(=O)N(C)CC(=O)N[C@@H](CC(=O)O)C(=O)N[C@@H](C(C)C)C(=O)N(C)[C@@H](Cc2ccccc2)C(=O)N[C@@H](Cc2ccc(O)cc2)C(=O)N(C)CC(=O)N[C@@H](Cc2c[nH]c3ccccc23)C(=O)N[C@@H](Cc2ccc(O)cc2)C(=O)N[C@@H](CC(C)C)C(=O)N[C@H](C(=O)NCC(N)=O)CSCC(=O)N[C@@H](Cc2ccc(OC)c(OC)c2)C(=O)N(C)[C@@H](Cc2ccccc2)C(=O)N1C [Example 3102] ({CH2CO}-[Phe(3,4-(OMe)2)][NMeF][NMeNle][Sar]DV[NMeF]Y[Sar]WYLCG-NH2; thioether N-13) | > 30.5 | > 74.3 |  |
| CCCC[C@@H]1C(=O)N(C)[C@H](CCCC)C(=O)N[C@@H](CCCN)C(=O)N[C@@H](C(=O)NCC(N)=O)CSCC(=O)N[C@@H](Cc2ccc(O)cc2)C(=O)N2CCNCC2C(=O)N[C@H](CC(N)=O)C(=O)N2CCC[C@H]2C(=O)N[C@H](Cc2c[nH]cn2)C(=O)N[C@@H](CC(C)C)C(=O)N2C[C@H](O)CC2C(=O)N[C@H](Cc2c[nH]c3ccccc23)C(=O)N[C@@H](CO)C(=O)N[C@@H](Cc2c[nH]c3ccccc23)C(=O)N1C (stereo partly shown) [Example 1220] | 6.76 to 30.3 | 4.78 to 72.9 |  |
| CCCC[C@H]1C(=O)N2CCC[C@@H]2C(=O)N2C[C@H](N)C[C@H]2C(=O)N[C@@H](C(C)C)C(=O)N(C)[C@@H](Cc2ccccc2)C(=O)N[C@@H](Cc2ccc(O)cc2)C(=O)N2CCC[C@@H]2C(=O)N[C@@H](Cc2c[nH]c3ccccc23)C(=O)N[C@@H](Cc2ccc(O)cc2)C(=O)N[C@@H](CC(C)C)C(=O)N[C@H](C(=O)NCC(N)=O)CSCC(=O)N[C@@H](Cc2cc(F)c(F)c(F)c2)C(=O)N(C)[C@@H](Cc2ccccc2)C(=O)N1C [Example 3193] ({CH2CO}-[Phe(3,4,5-F3)][NMeF][NMeNle][dP][Pro(4R-NH2)]V[NMeF]Y[dP]WYLCG-NH2; thioether N-13) | 0.385 to 6.74 | 0.158 to 4.71 |  |
| CCCC[C@H]1C(=O)N2C[C@@H](O)C[C@@H]2C(=O)N[C@@H](CC(N)=O)C(=O)N[C@@H](C(C)C)C(=O)N(C)[C@@H](Cc2ccccc2)C(=O)N[C@@H](Cc2ccc(O)cc2)C(=O)N2CCOC[C@@H]2C(=O)N[C@@H](Cc2c[nH]c3ccccc23)C(=O)N[C@@H](Cc2ccc(O)cc2)C(=O)N[C@@H](CCCN)C(=O)N[C@H](C(=O)NCC(N)=O)CSCC(=O)N[C@@H](Cc2cc(F)c(F)c(F)c2)C(=O)N(C)[C@@H](Cc2ccccc2)C(=O)N1C [Example 3606] ({CH2CO}-[Phe(3,4,5-F3)][NMeF][NMeNle][dHyp]NV[NMeF]Y[X4]WY[Orn]CG-NH2; thioether N-13) | 0.385 to 6.74 |  | 0.158 to 4.71 |
| CCCC[C@H]1C(=O)N2CCC[C@@H]2C(=O)N[C@@H](CC(=O)O)C(=O)N[C@@H](C(C)C)C(=O)N(C)[C@@H](Cc2ccccc2)C(=O)N[C@@H](CCCN)C(=O)N2CCC[C@@H]2C(=O)N[C@@H](Cc2c[nH]c3ccccc23)C(=O)N[C@@H](Cc2ccc(O)cc2)C(=O)N[C@@H](CC(C)C)C(=O)N[C@H](C(=O)NCC(N)=O)CSCC(=O)N[C@@H](Cc2ccccc2)C(=O)N(C)[C@@H](Cc2ccccc2)C(=O)N1C [Example 3188] (HELM PEPTIDE1{[O=C(C[*:3])[*:2]].F.[meF].[CCCC[C@@H](C(=O)[*:2])N(C)[*:1]].[dP].D.V.[meF].[Orn].[dP].W.Y.L.C.G.[am]}$PEPTIDE1,PEPTIDE1,1:R3-14:R3$$$V2.0) | 6.76 to 30.3 | 0.158 to 4.71 |  |
| CCCC[C@H]1C(=O)N(C)[C@@H](CCCC)C(=O)N[C@@H](CCC(=O)O)C(=O)N[C@H](C(=O)NCC(N)=O)CSCC(=O)N[C@@H](Cc2ccc(O)cc2)C(=O)N(C)[C@@H](C)C(=O)N[C@@H](CCN)C(=O)N2CCC[C@H]2C(=O)N[C@@H](Cc2c[nH]cn2)C(=O)N[C@@H](CCC(=O)O)C(=O)N2C[C@H](O)C[C@H]2C(=O)N[C@@H](Cc2c[nH]c3ccccc23)C(=O)N[C@@H](CO)C(=O)N[C@@H](Cc2c[nH]c3ccccc23)C(=O)N1C [Example 5111] ({CH2CO}-Y[NMeA][Dab]PHE[Hyp]WSW[NMeNle][NMeNle]ECG-NH2; thioether N-14) | 6.76 to 30.3 |  | 4.78 to 72.9 |
| CCCC[C@H]1C(=O)N(C)[C@@H](CCCC)C(=O)N[C@@H](CC(N)=O)C(=O)N[C@H](C(=O)NCC(N)=O)CSCC(=O)N[C@@H](Cc2ccccc2)C(=O)N(C)[C@@H](C)C(=O)N[C@@H](CC(N)=O)C(=O)N2CCC[C@H]2C(=O)N[C@@H](Cc2cnc[nH]2)C(=O)N[C@@H](CC(C)C)C(=O)N(C)CC(=O)N[C@@H](Cc2c[nH]c3ccccc23)C(=O)N[C@@H](CO)C(=O)N[C@@H](Cc2c[nH]c3ccccc23)C(=O)N1C [Example 5014] ({CH2CO}-F[NMeA]NPHL[Sar]WSW[NMeNle][NMeNle]NCG-NH2; thioether N-14) | 6.76 to 30.3 |  | 4.78 to 72.9 |

Reference: patent US9850283B2, “Macrocyclic inhibitors of the PD-1/PD-L1 and CD80(B7-1)/PD-L1 protein/protein interactions” (BRISTOL-MYERS SQUIBB COMPANY, priority 2013, dated 2017)
